What is called IC50 is the concentration that gives 50% inhibition.

In one experiment the target is T1, human RIOK2 protein (Homo sapiens, UniProt Q9BVS4).
T1 construct: glutathione S-transferase is fused to N-terminal of a full-length human RIOK2 protein; GST (glutathione S-transferase) (N); purchased CarnaBio, Inc; host or cells: baculovirus-Sf21 cell expression system
In words: RIOK2 autophosphorylation ELISA (Test Example 4). The format is biochemical. Conditions: for inhibition at 1 µM: read-out: Inhibitory activity at 1 μM (%); for inhibition at 10 µM: read-out: Inhibitory activity at 10 μM (%). As for the experimental part: A protein in which glutathione S-transferase is fused to N-terminal of a full-length human RIOK2 protein was used as a recombinant human RIOK2 protein. The protein was prepared using a baculovirus-Sf21 cell expression system from CarnaBio, Inc. A kinase reaction solution was prepared by mixing 25 μg/mL of the recombinant human RIOK2 protein and 100 μM of ATP in 20 μl of kinase reaction buffer (50 mM Tris-HCl, 10 mM MgCl2, 10 mM MnCl2, 1 mM DTT, 0.01% Brij, 1× PhosSTOP (manufactured by Roche Applied Science)), and was incubated at a temperature of 30° C. for 1 hour. After adding 30 μl of 40 mM EDTA solution to this kinase reaction solution, the kinase reaction solution was transferred to a MaxiSorp 96 well plate (manufactured by Nunc). Thereafter, phosphorylated human RIOK2 protein was allowed to adsorb onto the wells by leaving the plate in a refrigerator overnight.
The following day, the supernatant was removed, and the wells were washed three times with ELISA buffer (20 mM Tris-HCl, 150 mM NaCl, 0.2% Tween-20, 0.1% BSA). Thereafter, 100 μl of Blocking-One P (product name; manufactured by Nacalai Tesque, Inc.) was applied to the wells, and a blocking treatment was performed for 1 hour at room temperature. […] After further washing the wells, a secondary antibody, anti-rabbit IgG conjugated with horseradish peroxidase (manufactured by Jackson ImmunoResearch; 1/4000 ELISA buffer-diluted solution), was applied to the wells, and incubation was performed for 30 minutes at room temperature. After washing the wells once again, 50 μl of tetramethyl benzidine (TMB) aqueous solution (manufactured by Nacalai Tesque, Inc.) was applied to the wells, and a coloring reaction was performed for 30 minutes at room temperature. Thereafter, the coloring reaction was stopped by adding 50 μl of 2M H2SO4 to the wells. An absorptiometric level of 450 nm was measured in each well using ARVO SX (manufactured by Wallac).

In a further experiment the test system is A549. In words: Bulk cancer cells, Cell Titer-Glo 72 hours (Test Example 2). The note with it: Homo sapiens. The format is cell-based. How it is done:
(§1) Tubes of 3× drug (60 uM in 500 uL complete media) were prepared from 5 mM stock solutions in DMSO. […] To treat cells, 50 uL of drug from the dilution plate was removed and added to the cell plates. […] Cells were harvested 72 hours after drug addition using Cell Titer-Glo (Promega) and luminescence measured on a plate reader.

In a further experiment the test system is ACHN. The experiment is described as above. The format is cell-based. Conditions: Homo sapiens, ACHN, 72 h. As for the experimental part:
as §1

The test system of a further experiment is FaDu. The description is as above. The experiment is classed as cell-based. The note with it: Homo sapiens. As for the experimental part: as §1
Another experiment deals with FaDu CSC. In words: Cancer stem cells, Cell Titer-Glo 72 hours (Test Example 3). The experiment is classed as cell-based. The note with it: Homo sapiens, FaDu, 72 h.
The next experiment has as its system A549 CSC. The experiment is described as above. The experiment is classed as cell-based. The note with it: Homo sapiens.
For the next experiment, the system named is ACHN CSC. The experiment is described as above. The experiment is classed as cell-based. Conditions: Homo sapiens, ACHN, 72 h.

T1 sequence (Q9BVS4 whole entry, the tested form may be a part): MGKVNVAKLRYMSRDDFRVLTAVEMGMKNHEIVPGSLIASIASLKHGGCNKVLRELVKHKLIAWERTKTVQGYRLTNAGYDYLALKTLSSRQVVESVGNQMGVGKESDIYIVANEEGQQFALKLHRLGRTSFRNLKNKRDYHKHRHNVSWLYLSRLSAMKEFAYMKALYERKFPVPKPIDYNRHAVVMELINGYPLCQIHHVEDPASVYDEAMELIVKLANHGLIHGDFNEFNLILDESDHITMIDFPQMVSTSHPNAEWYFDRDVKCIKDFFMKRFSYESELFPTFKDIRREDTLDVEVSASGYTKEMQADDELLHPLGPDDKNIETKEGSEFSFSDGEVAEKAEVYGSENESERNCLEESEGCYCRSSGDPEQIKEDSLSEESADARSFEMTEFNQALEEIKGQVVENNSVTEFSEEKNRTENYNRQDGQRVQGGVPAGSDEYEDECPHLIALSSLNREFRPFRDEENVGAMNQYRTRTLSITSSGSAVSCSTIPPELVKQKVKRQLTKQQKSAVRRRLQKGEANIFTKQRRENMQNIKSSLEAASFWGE

Consider `Cc1[nH]c(/C=C2\C(=O)Nc3ccc(-c4cnn(-c5ccccc5)c4)cc32)c(C)c1C(=O)NC1CCNCC1` [Example 94], for which, on human RIOK2 protein, the inhibition at 1 µM is 17% and the inhibition at 10 µM was determined as 140%.
Consider `Cc1[nH]c(/C=C2\C(=O)Nc3ccc(-c4cnn(-c5ccccc5)c4)cc32)c(C)c1C(=O)NCC1(N)CCCC1` [Example 93], for which, at human RIOK2 protein, the inhibition at 1 µM came to 7% and the inhibition at 10 µM is 65%.
The matching figures for `Cc1[nH]c(/C=C2\C(=O)Nc3ccc(-c4cnn(-c5ccccc5)c4)cc32)c(C)c1C(=O)NC[C@@H]1CCCN1` [Example 101]: 13% and 94%.
Turning to `Cc1[nH]c(/C=C2\C(=O)Nc3ccc(-c4cnn(-c5ccccc5)c4)cc32)c(C)c1C(=O)NCCc1ncc[nH]1` [Example 98], on human RIOK2 protein, the inhibition at 1 µM is -2% and the inhibition at 10 µM was 25%.
Taken in the same sequence, the figures for `CCN(CC)CCNC(=O)c1c(C)[nH]c(/C=C2\C(=O)Nc3ccc(-c4cnn(-c5nccs5)c4)cc32)c1C` [Example 73] were 18% and 111%.
The matching figures for `CCN(CC)CCNC(=O)c1c(C)[nH]c(/C=C2\C(=O)Nc3ccc(-c4ccnn4-c4ccc(Cl)c(Cl)c4)cc32)c1C` [Example 65]: 18% and 87%.
Taken in the same sequence, the figures for `CCN(CC)CCNC(=O)c1c(C)[nH]c(/C=C2\C(=O)Nc3ccc(-c4ccnn4-c4ccccn4)cc32)c1C` [Example 63] were 14% and 93%.
As to `CCN(CC)CCNC(=O)c1c(C)[nH]c(/C=C2\C(=O)Nc3ccc(-c4ccnn4-c4ccccc4F)cc32)c1C` [Example 58], at human RIOK2 protein, the inhibition at 1 µM came to 56% and the inhibition at 10 µM worked out at 116%.
As for `Cc1[nH]c(/C=C2\C(=O)Nc3ccc(-c4cnn(-c5ccccc5)c4)cc32)c(C)c1C(=O)NC[C@H]1CCCN1` [Example 100], at human RIOK2 protein, the inhibition at 1 µM amounted to 9% and the inhibition at 10 µM was determined as 126%.
Regarding `Cc1[nH]c(/C=C2\C(=O)Nc3ccc(-c4cnn(-c5ccccc5)c4)cc32)c(C)c1C(=O)NCc1nc2ccccc2[nH]1` [Example 99], on human RIOK2 protein, the inhibition at 1 µM was -11% and the inhibition at 10 µM amounted to 79%.
Turning to `CCN(CC)CCNC(=O)c1c(C)[nH]c(/C=C2\C(=O)Nc3ccc(-c4ccnn4-c4ccc(F)cc4)cc32)c1C` [Example 57], at human RIOK2 protein, the inhibition at 1 µM was 39% and the inhibition at 10 µM was found to be 104%.
Taken in the same sequence, the figures for `CCN(CC)CCN(C)C(=O)c1c(C)[nH]c(/C=C2\C(=O)Nc3ccc(-c4cnn(-c5ccccc5)c4)cc32)c1C` [Example 92] were 3% and 113%.
As for `CCN(CC)CCNC(=O)c1c(C)[nH]c(/C=C2\C(=O)Nc3ccc(-c4ccnn4-c4ccncc4)cc32)c1C` [Example 66], on human RIOK2 protein, the inhibition at 1 µM is -6% and the inhibition at 10 µM was 44%.
For `CCN(CC)CCNC(=O)c1c(C)[nH]c(/C=C2\C(=O)Nc3ccc(-c4ccnn4-c4ccc(OC)cc4)cc32)c1C` [Example 59], at human RIOK2 protein, the inhibition at 1 µM is 34% and the inhibition at 10 µM was 106%.
The matching figures for `CCN(CC)CCNC(=O)c1c(C)[nH]c(/C=C2\C(=O)Nc3ccc(-c4ccnn4-c4cccc(OC)c4)cc32)c1C` [Example 62]: 51% and 98%.
Taken in the same sequence, the figures for `CCN(CC)CCNC(=O)c1c(C)[nH]c(/C=C2\C(=O)Nc3ccc(-c4cnn(-c5cccnc5)c4)cc32)c1C` [Example 79] were 42% and 82%.
With `CCN(CC)CCNC(=O)c1c(C)[nH]c(/C=C2\C(=O)Nc3ccc(-c4cnn(-c5ccccc5Cl)c4)cc32)c1C` [Example 71], at human RIOK2 protein, the inhibition at 1 µM came to 4% and the inhibition at 10 µM came to 99%.
The matching figures for `CCOCCCNC(=O)c1c(C)[nH]c(/C=C2\C(=O)Nc3ccc(-c4cnn(-c5ccccc5)c4)cc32)c1C` [Example 91]: -7% and 43%.
The matching figures for `CCN(CC)CCNC(=O)c1c(C)[nH]c(/C=C2\C(=O)Nc3ccc(-c4ccnn4-c4ccc(C(F)(F)F)cc4)cc32)c1C` [Example 60]: 9% and 68%.
The matching figures for `CCN(CC)CCCNC(=O)c1c(C)[nH]c(/C=C2\C(=O)Nc3ccc(-c4cnn(-c5ccccc5)c4)cc32)c1C` [Example 90]: 20% and 96%.
On to `Cc1[nH]c(/C=C2\C(=O)Nc3ccc(-c4cnn(-c5ccccc5)c4)cc32)c(C)c1C(=O)NC1[C@H]2CNC[C@@H]12` (some centres unmarked) [Example 95], for which, on human RIOK2 protein, the inhibition at 1 µM was found to be 22% and the inhibition at 10 µM was 134%.
The matching figures for `CCN(CC)CCNC(=O)c1c(C)[nH]c(/C=C2\C(=O)Nc3ccc(-c4cnn(-c5ncccn5)c4)cc32)c1C` [Example 70]: 42% and 112%.
Turning to `CCN(CC)CCNC(=O)c1c(C)[nH]c(/C=C2\C(=O)Nc3ccc(-c4cnc5ccccc5n4)cc32)c1C` [Example 185], the IC50 in the experiment with A549 worked out at 8.13 µM; in the experiment on ACHN it was 5.73 µM; in the experiment on FaDu, 2.66 µM; in the experiment with FaDu CSC, 0.04 µM; with A549 CSC it was 42.3 µM; in the experiment on ACHN CSC, 5.59 µM.
In the case of `CCN(CC)CCNC(=O)c1c(C)[nH]c(/C=C2\C(=O)Nc3ccc(-c4ccccn4)cc32)c1C` [Example 183], the IC50 in the experiment with A549 turned out to be 7.23 µM; with ACHN, 2.26 µM; in the experiment on FaDu it was 2.56 µM; in the experiment with FaDu CSC, 0.18 µM; with A549 CSC it was 5.45 µM; in the experiment on ACHN CSC, 1.06 µM.
Regarding `O=C1Nc2ccc(-c3csc(C4CCNCC4)n3)cc2/C1=C/c1cc2ccccc2[nH]1` [Example 168], the IC50 in the experiment with A549 was determined as 5.55 µM; in the experiment with ACHN it was 4.12 µM; in the experiment on FaDu, 5.16 µM; with FaDu CSC, 0.76 µM; in the experiment on A549 CSC, 2.04 µM; with ACHN CSC, 0.1 µM.
In the case of `CCN(CC)CCNC(=O)c1c(C)[nH]c(/C=C2\C(=O)Nc3ccc(-c4ncccc4OC)cc32)c1C` [Example 189], the IC50 in the experiment with A549 worked out at 7.48 µM; in the experiment on ACHN, 7.14 µM; in the experiment on FaDu it was 2.63 µM; in the experiment with FaDu CSC, 0.07 µM; in the experiment on A549 CSC, 6.84 µM; in the experiment on ACHN CSC, 1.41 µM.
On to `CCN(CC)CCNC(=O)c1c(C)[nH]c(/C=C2\C(=O)Nc3ccc(-c4cccc(OC)n4)cc32)c1C` [Example 190], for which the half-maximal inhibitory concentration (IC50) in the experiment with A549 turned out to be 2.79 µM; in the experiment with ACHN it was 1.96 µM; in the experiment with FaDu, 1.76 µM; in the experiment with FaDu CSC, 0.19 µM; in the experiment on A549 CSC it was 2.24 µM; with ACHN CSC, 0.24 µM.
As for `CCN(CC)CCNC(=O)c1c(C)[nH]c(/C=C2\C(=O)Nc3ccc(-c4ccc(-c5ccccc5)nc4)cc32)c1C` [Example 194], the IC50 in the experiment on A549 is 2.3 µM; with ACHN, 7.41 µM; with FaDu, 4.92 µM; with FaDu CSC it was 3.96 µM; with A549 CSC it was 6.45 µM; in the experiment with ACHN CSC, 0.63 µM.
`CCN(CC)CCNC(=O)c1c(C)[nH]c(/C=C2\C(=O)Nc3ccc(-c4cnc5cn[nH]c5c4)cc32)c1C` [Example 181]: the half-inhibitory concentration (IC50) came to 3.24 µM with A549; 2.74 µM in the experiment on ACHN; 1.49 µM in the experiment with FaDu; 0.16 µM in the experiment on FaDu CSC; 26.4 µM in the experiment on A549 CSC; 10.8 µM with ACHN CSC.
As for `O=C1Nc2ccc(-c3csc(C4CCNCC4)n3)cc2/C1=C/c1cc2c([nH]1)CCCC2` [Example 157], the IC50 in the experiment with A549 is 9.39 µM; in the experiment with ACHN, 18.8 µM; with FaDu it was 21.1 µM; in the experiment with FaDu CSC, 12 µM; in the experiment on A549 CSC, 22.1 µM; in the experiment on ACHN CSC it was 2.68 µM.
As for `CCN(CC)CCNC(=O)c1c(C)[nH]c(/C=C2\C(=O)Nc3ccc(-c4ccc(OC)cn4)cc32)c1C` [Example 188], the 50% inhibitory concentration (IC50) in the experiment with A549 came to 10.8 µM; in the experiment with ACHN it was 6.44 µM; in the experiment with FaDu, 7.01 µM; with FaDu CSC, 0.16 µM; in the experiment on A549 CSC, 8.89 µM; in the experiment on ACHN CSC, 1.08 µM.

Source of the values: patent US20190241569A1, “3-(ARYL OR HETEROARYL) METHYLENEINDOLIN-2-ONE DERIVATIVES AS INHIBITORS OF CANCER STEM CELL PATHWAY KINASES FOR THE TREATMENT OF CANCER” (Boston Biomedical, Inc., priority 2013, published 2019).
